Experimental data as given in US10500222B2, “Compositions and methods relating to treatment of infection” (Wayne State University, priority 2015, dated 2019).
≈ marks a conversion by molar mass, not a printed value.

Assays:
[1] = tested on: neutrophils in the cornea, P. aeruginosa KEI 1025; assay: Myeloperoxidase (MPO) assay, KEI 1025 infection; assay type: in vivo, C57BL/6 (B6) mice; conditions: pretreatment subconj. + IP, vs PBS
Description: (§1) The left eyes of B6 mice (n=5/group/time) were injected with 5 μl of 2 μg/μl glycyrrhizin (GLY) (Sigma-Aldrich, St. Louis, Mo.) or PBS (control) subconjunctivally, one day before infection. Similar treatment was done using carbenoxolone (CBX) (Sigma-Aldrich, St. Louis, Mo.). All mice were injected intraperitoneally (IP) at 1 and 3 days p.i. with 100 μl of GLY (2 μg/μl) or CBX (1 μg/μl). PBS served as control for all these experiments. In a separate similar experiment mice were treated one day before infection with GLY subconjunctivally and injected intraperitoneally (i.p.) with GLY plus recombinant (r) HMGB1 (1 μg/100 μl) or GLY plus PBS. IP injections were similarly given at 1 and 3 days p.i. In an additional experiment, KEI 1025 infected B6 mice were treated with 5 μl of 2 μg/μl GLY subconjunctivally at 6 hours p.i. and injected intraperitoneally at 1 and 3 days p.i. with 100 μl of GLY (2 μg/μl).
This assay was used to quantitate neutrophils in the cornea of GLY and PBS treated mice (n=5/group/time) infected with KEI 1025 or ATCC strain 19660. Individual corneas were removed at 3 and 5 days p.i. and homogenized in 1.0 ml of 50 mM phosphate buffer (pH 6.0) containing 0.5% HTAB. […] The change in absorbency was monitored at 460 nm for 5 min at 30 sec intervals. The slope of the line was determined for each sample and used to calculate units of MPO/cornea. […]

[2] = tested on: P. aeruginosa KEI 1025; assay: Bacterial growth and Minimum Inhibitory Concentration (MIC), strain KEI 1025; assay type: cell-based, Pseudomonas aeruginosa; conditions: for absorbance values of bacterial cultures: vs growth control
[3] = tested on: protein levels in P. aeruginosa KEI 1025 infected cornea; assay: ELISA of corneal proteins, KEI 1025 infection; assay type: in vivo, C57BL/6 (B6) mice; conditions: vs PBS
Description: as §1
(§2) KEI 1025 or ATCC strain 19660 infected GLY or PBS treated, B6 mice (n=5/group/time) were sacrificed at 3 and 5 days p.i. and normal and infected corneas harvested. To quantify IL-1β and CXCL2 proteins, individual corneas were homogenized in 1 ml of 50 mM potassium phosphate buffer (pH 6.0) containing 0.5% HTAB (hexadecyltrimethylammonium bromide, Sigma). To quantify HMGB1, cathelicidin-related antimicrobial peptide (CRAMP), mouse beta defensin 2 (mBD2) and mouse beta defensin 3 (mBD3) protein levels, individual corneas were homogenized in 500 μl of PBS containing 0.1% Tween 20 (Sigma) and protease inhibitors (Roche, Indianapolis, Ind.). Corneal homogenates were centrifuged at 12,000 g for 10 min. A 50 μl aliquot of each supernatant was assayed in duplicate to quantify IL-1β, CXCL2, HMGB1 and mBD2 proteins. A 100 μl aliquot of CRAMP and mBD3 supernatant was assayed in duplicate to quantify corresponding protein levels. Undiluted supernatant aliquots were used to quantify all proteins except CXCL2 (1:2 dilution) and HMGB1 (1:5 dilution). An HMGB1 ELISA kit was purchased from Chondrex Inc., Redmond, Wash. CRAMP, mBD2 and mBD3 ELISA kits were purchased from MyBioSource, Inc., San Diego, Calif. All other ELISA kits were purchased from R&D Systems, Minneapolis, Minn. Assays were run following the manufacturer's instructions. Sensitivities of the assays were: 2.31 […] (mBD3).

[4] = tested on: protein levels in P. aeruginosa ATCC strain 19660 infected cornea; assay: ELISA of corneal proteins, strain 19660 infection; assay type: in vivo, C57BL/6 (B6) mice; conditions: vs PBS
Description: as §1, §2

[5] = KEI 1025, pretreatment subconj. + IP, 3 days p.i.
[6] = KEI 1025, pretreatment subconj. + IP, 5 days p.i.

CC1(C)[C@@H](O[C@H]2O[C@H](C(=O)O)[C@@H](O)[C@H](O)[C@H]2O[C@@H]2O[C@H](C(=O)O)[C@@H](O)[C@H](O)[C@H]2O)CC[C@]2(C)[C@H]3C(=O)C=C4[C@@H]5C[C@@](C)(C(=O)O)CC[C@]5(C)CC[C@@]4(C)[C@]3(C)CC[C@@H]12 [GLY, glycyrrhizin]
neutrophils in cornea (MPO assay) ([1]; 3 days p.i.): decreased neutrophils | neutrophils in cornea (MPO assay) ([1]; 5 days p.i.): decreased neutrophils | MIC50 ([2]; Pseudomonas aeruginosa, KEI1025, strain KEI 1025, 50% decrease in absorbance at 540 nm, 37° C., 18 h): 20 mg/mL (≈ 24.3 mM) | MIC90 ([2]; Pseudomonas aeruginosa, KEI1025, strain KEI 1025, 90% decrease in absorbance at 540 nm, 37° C., 18 h): 40 mg/mL (≈ 48.6 mM) | Minimum Inhibitory Concentration 50 (MIC50) ([2]; non-cytotoxic strains): 20 milligrams/milliliter | absorbance values of bacterial cultures ([2]; strain KEI 1025, grown with 20 mg/ml GLY): significantly reduced | absorbance values of bacterial cultures ([2]; strain KEI 1025, grown with 40 mg/ml GLY): significantly reduced | CXCL2 protein expression [3, 5]: significantly decreased | HMGB1 protein [3, 5]: not 3 days p.i. | IL-1 protein [3, 5]: no different from control values | expression of CRAMP (protein) [3, 5]: upregulated the expression of CRAMP significantly | mBD2 protein [3, 5]: significantly upregulated | mBD3 protein [3, 5]: did not differ significantly | CXCL2 protein expression [3, 6]: significantly decreased | HMGB1 protein [3, 6]: reduced HMGB1 protein significantly | IL-1 protein [3, 6]: significantly decreased | expression of CRAMP (protein) [3, 6]: no difference between groups | mBD2 protein [3, 6]: significantly upregulated | mBD3 protein [3, 6]: did not differ significantly | HMGB1 protein ([3]; normal cornea): did not differ | mBD3 protein ([3]; normal cornea): did not differ significantly | mBD2 protein ([3]; normal, contralateral uninfected eye): higher | expression of CRAMP (protein) ([3]; normal, uninfected cornea): upregulated the expression of CRAMP significantly | CXCL2 protein levels ([4]; strain 19660, 3 days p.i.): downregulated significantly | CXCL2 protein levels ([4]; strain 19660, 5 days p.i.): downregulated significantly | HMGB1 protein ([4]; strain 19660, normal cornea and infected groups): no significant differences | CXCL2 protein ([4]; strain 19660 experiment, normal cornea): No differences
